Laboratory results from patent publication US4356183A, “Antihypertensive 4-thiazolidinecarboxylic acids (pyridyl derivatives)” (Santen Pharmaceutical Co., Ltd., priority 1978, dated 1982).

Key:
[1] = system: contractile response to bradykinin (isolated guinea pig ileum); assay: Augmentation of contractile response of isolated guinea pig ileum to bradykinin; format: cell-based; details: Cavia porcellus, bradykinin 0.005 μg/ml; compound added 5 min before; 30° C.; read-out: Bradykinin AC50 (50% augmentation of bradykinin activity inducing the contraction of guinea pig ileum)
Protocol: (§1) Isolated guinea pig ileum was suspended in the organ bath containing 20 ml of Tyrode's solution of 30° C. gassed with 95% O2 +5% CO2. The contraction induced by the addition of angiotensin I (0.1 μg/ml) at intervals of 10 minutes was recorded on a recticorder (Nihon Koden) for 90 seconds using FD pick up (ST-1T-H, Nihon Koden).
(§2) The test compounds were added to the bath 5 minutes before the addition of angiotensin I.
From the fact that kininase II, which destroys bradykinin having contractive action on isolated guinea pig ileum, is thought to be identical with angiotensin I-converting enzyme, augmentation of the contractile response to bradykinin by test compounds was examined by using bradykinin (0.005 μg/ml) in place of angiotensin I according to the above mentioned method.

[2] = system: pressor response to angiotensin I; assay: Inhibition of pressor response to angiotensin I in rats after oral administration; format: in vivo, rat (male Wistar); details: angiotensin I 300 ng/kg i.v.
Protocol: Male Wistar strain rats weighing about 200-300 g were used.
Under ether anesthesia, polyethylene cannulae are inserted into carotid arthery and jugular vein. The cannula to carotid artery is connected to an electric transducer, while the cannula to jugular vein is connected to an apparatus for continuous infusion. After the complete recovery from anesthesia, angiotensin I is infused intravenously in a dose of 300 ng/kg by the apparatus for continuous infusion, and the pressor response is recorded by polygraph (Nihon Koden, RM-150).
The compounds of this invention suspended in 0.5% tragacanth solution are administered orally in a dose of 0.3 ml per 100 g of body weight, and the pressor response to angiotensin I infused intravenously is measured with time.
The inhibitory activity of the compounds against angiotensin I-converting enzyme is expressed as the percent inhibition of pressor response to angiotensin I.

[3] = system: contractile response of isolated guinea pig ileum to angiotensin I; assay: Inhibition of contractile response of isolated guinea pig ileum to angiotensin I; format: cell-based; details: Cavia porcellus, angiotensin I 0.1 μg/ml; compound added 5 min before; 30° C.; read-out: Angiotensin I IC50 (50% inhibition of angiotensin I activity inducing the contraction of guinea pig ileum)
Text: As the method of measurement of angiotensin I-converting enzyme activity, bioassay for the contractile response of isolated smooth muscle or the pressor response of normal animals and biochemical assay for the enzyme isolated from lung or other organs of animals are known. The former is found more advantageous than the latter for the examination of the convertion of angiotensin I to angiotensin II in vivo.
In the present study, therefore, we adopted the bioassay for contractile response of isolated guinea pig ileum to angiotensin I.
(§3) Measurement of inhibitory activity of angiotensin I-converting enzyme
as §1, §2
The inhibitory activity of angiotensin I-converting enzyme was calculated by the following formula. [formula] A: contractile intensity of angiotensin I before addition of the compound B: contractile intensity of angiotensin I after addition of the compound

[4] = target: T1, angiotensin I-converting enzyme (Oryctolagus cuniculus, UniProt P12822); assay: Inhibition of angiotensin I-converting enzyme by spectrophotometry (HHL substrate); format: biochemical; details: enzyme from rabbit lung; 5 mM HHL; pH 8.3; 37° C., 30 min
T1 construct: angiotensin I-converting enzyme extracted from rabbit lung; from tissue; host or cells: rabbit lung
T1 sequence (P12822 34-1310): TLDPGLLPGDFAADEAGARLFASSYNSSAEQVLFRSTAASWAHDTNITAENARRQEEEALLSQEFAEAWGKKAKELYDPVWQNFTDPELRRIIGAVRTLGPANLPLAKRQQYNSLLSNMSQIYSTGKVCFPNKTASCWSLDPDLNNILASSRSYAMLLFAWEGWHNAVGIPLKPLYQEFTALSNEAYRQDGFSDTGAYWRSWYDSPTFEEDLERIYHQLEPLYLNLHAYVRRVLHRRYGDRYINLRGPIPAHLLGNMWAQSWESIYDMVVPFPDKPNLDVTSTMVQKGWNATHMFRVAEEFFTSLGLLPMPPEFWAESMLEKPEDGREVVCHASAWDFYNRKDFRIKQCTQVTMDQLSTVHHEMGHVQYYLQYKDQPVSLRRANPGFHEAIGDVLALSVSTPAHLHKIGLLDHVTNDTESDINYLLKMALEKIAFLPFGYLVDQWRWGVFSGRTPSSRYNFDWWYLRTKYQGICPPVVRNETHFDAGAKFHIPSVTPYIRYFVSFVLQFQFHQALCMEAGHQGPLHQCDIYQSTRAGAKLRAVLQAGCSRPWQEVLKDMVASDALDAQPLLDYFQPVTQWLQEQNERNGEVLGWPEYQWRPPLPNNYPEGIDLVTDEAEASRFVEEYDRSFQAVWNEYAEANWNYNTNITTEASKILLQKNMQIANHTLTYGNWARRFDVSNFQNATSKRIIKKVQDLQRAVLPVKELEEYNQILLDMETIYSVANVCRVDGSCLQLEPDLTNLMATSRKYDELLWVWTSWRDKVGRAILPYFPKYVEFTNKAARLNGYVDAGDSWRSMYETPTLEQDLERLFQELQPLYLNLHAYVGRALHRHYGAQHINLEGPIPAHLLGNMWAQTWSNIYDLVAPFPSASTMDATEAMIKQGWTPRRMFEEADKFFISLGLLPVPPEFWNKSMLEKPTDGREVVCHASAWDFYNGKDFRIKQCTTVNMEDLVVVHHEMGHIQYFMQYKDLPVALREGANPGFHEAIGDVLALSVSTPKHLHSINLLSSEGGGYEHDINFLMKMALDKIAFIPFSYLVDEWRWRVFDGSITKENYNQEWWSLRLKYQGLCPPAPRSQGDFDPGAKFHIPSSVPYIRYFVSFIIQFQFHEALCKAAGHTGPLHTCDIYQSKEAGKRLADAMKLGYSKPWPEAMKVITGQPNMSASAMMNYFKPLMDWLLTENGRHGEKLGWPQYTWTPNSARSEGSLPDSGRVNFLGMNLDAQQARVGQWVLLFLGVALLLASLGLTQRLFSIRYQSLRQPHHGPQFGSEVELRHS
Protocol: That is, the absorbance of hippuric acid was measured, which is liberated by incubating hippuryl-L-histidyl-L-leucine (HHL) as substrate in the presence of angiotensin I-converting enzyme extracted from rabbit lung.
as §3
The reaction mixture is as follows:
100 mM phosphate buffer (pH 8.3)
10^-3 ~10^-9 M enzyme inhibitor
0.25 ml of the above mixture was incubated at 37° C. for 30 minutes and the reaction was stopped by adding 0.25 ml of 1 N hydrochloric acid. To this solution, 1.5 ml of ethyl acetate was added in order to extract hippuric acid. 1.0 ml of ethyl acetate layer was collected and evaporated to dryness, and the residue obtained was dissolved in 1.0 ml of water.
The inhibitory activity of angiotensin I-converting enzyme was calculated by the following formula: [formula]

IC50 [3]	IC50 [4]	Structure (SMILES)	AC50 [1]	other results
50 nM	120 nM	C[C@H](CS)C(=O)N1C(C2CCCCC2)SC[C@H]1C(=O)O (stereo partly shown) [Compound 4]	2 nM	Inhibition (%) of pressor response to angiotensin I, 5 min ([2]; 5 min, dose: 3, 45, 49 1.8 mg/kg, 4, 46 1.3, 50 1.4, 76 2.0, 77 1.5): 46.7%; Inhibition (%) of pressor response to angiotensin I, 15 min ([2]; 15 min, dose: 3, 45, 49 1.8 mg/kg, 4, 46 1.3, 50 1.4, 76 2.0, 77 1.5): 46.5%; Inhibition (%) of pressor response to angiotensin I, 25 min ([2]; 25 min, dose: 3, 45, 49 1.8 mg/kg, 4, 46 1.3, 50 1.4, 76 2.0, 77 1.5): 37.2%; Inhibition (%) of pressor response to angiotensin I, 35 min ([2]; 35 min, dose: 3, 45, 49 1.8 mg/kg, 4, 46 1.3, 50 1.4, 76 2.0, 77 1.5): 32.2%; Inhibition (%) of pressor response to angiotensin I, 45 min ([2]; 45 min, dose: 3, 45, 49 1.8 mg/kg, 4, 46 1.3, 50 1.4, 76 2.0, 77 1.5): 28.8%; Inhibition (%) of pressor response to angiotensin I, 55 min ([2]; 55 min, dose: 3, 45, 49 1.8 mg/kg, 4, 46 1.3, 50 1.4, 76 2.0, 77 1.5): 27.5%; Inhibition (%) of pressor response to angiotensin I, 65 min ([2]; 65 min, dose: 3, 45, 49 1.8 mg/kg, 4, 46 1.3, 50 1.4, 76 2.0, 77 1.5): 27.5%; Inhibition (%) of pressor response to angiotensin I, 75 min ([2]; 75 min, dose: 3, 45, 49 1.8 mg/kg, 4, 46 1.3, 50 1.4, 76 2.0, 77 1.5): 13.8%; Inhibition (%) of pressor response to angiotensin I, 85 min ([2]; 85 min, dose: 3, 45, 49 1.8 mg/kg, 4, 46 1.3, 50 1.4, 76 2.0, 77 1.5): 14.5%; Inhibition (%) of pressor response to angiotensin I, 95 min ([2]; 95 min, dose: 45, 49 1.8 mg/kg, 4, 46 1.3, 50 1.4, 76 2.0, 77 1.5): 10.3%
180 nM	400 nM	C[C@H](CS)C(=O)N1C(c2cccc([N+](=O)[O-])c2)SC[C@H]1C(=O)O (stereo partly shown) [Compound 34]	2.5 nM	
560 nM	2200 nM	O=C(O)[C@@H]1CSC(c2ccccc2O)N1C(=O)CS (stereo partly shown) [Compound 44]	5 nM	
71 nM	210 nM	O=C(O)[C@@H]1CSC(c2cccc(O)c2)N1C(=O)CCS (stereo partly shown) [Compound 52]	1.5 nM	
150 nM	230 nM	C[C@H](CS)C(=O)N1C(c2cccc(O)c2)SC[C@H]1C(=O)O (stereo partly shown) [Compound 54]	1.7 nM	
460 nM	1200 nM	O=C(O)[C@@H]1CSC(c2ccc(O)cc2)N1C(=O)CCS (stereo partly shown) [Compound 56]	5.5 nM	
520 nM	2600 nM	O=C(O)[C@@H]1CSC(c2ccc(O)c(O)c2)N1C(=O)CCS (stereo partly shown) [Compound 58]	5.8 nM	
92 nM	75 nM	C[C@H](CS)C(=O)N1C(c2cc(Cl)ccc2O)SC[C@H]1C(=O)O (stereo partly shown) [Compound 60]	2 nM	
500 nM	420 nM	COc1ccccc1C1SC[C@@H](C(=O)O)N1C(=O)[C@H](C)CS (stereo partly shown) [Compound 64]	8 nM	
88 nM	750 nM	COc1ccc(C2SC[C@@H](C(=O)O)N2C(=O)[C@H](C)CS)cc1 (stereo partly shown) [Compound 68]	2.1 nM	
410 nM	390 nM	COc1cc(C2SC[C@@H](C(=O)O)N2C(=O)[C@H](C)CS)cc(OC)c1OC (stereo partly shown) [Compound 71]	9.4 nM	
36 nM	93 nM	COc1cccc(C2SC[C@@H](C(=O)O)N2C(=O)CCS)c1O (stereo partly shown) [Compound 73]	1.1 nM	
140 nM	200 nM	COc1ccc(C2SC[C@@H](C(=O)O)N2C(=O)CCS)c(O)c1 (stereo partly shown) [Compound 75]	3.1 nM	
210 nM	1300 nM	COc1cc(C2SC[C@@H](C(=O)O)N2C(=O)[C@H](C)CS)ccc1O (stereo partly shown) [Compound 79]	3.2 nM	
140 nM	240 nM	C[C@H](CS)C(=O)N1C(c2ccc3c(c2)OCO3)SC[C@H]1C(=O)O (stereo partly shown) [Compound 81]	0.94 nM	
360 nM	1300 nM	C[C@H](CS)C(=O)N1C(c2cccc3ccccc23)SC[C@H]1C(=O)O (stereo partly shown) [Compound 83]	13 nM	
240 nM	340 nM	C[C@H](CS)C(=O)N1C(c2ccco2)SC[C@H]1C(=O)O (stereo partly shown) [Compound 85]	3.7 nM	
460 nM	730 nM	Cc1ccc(C2SC[C@@H](C(=O)O)N2C(=O)[C@H](C)CS)o1 (stereo partly shown) [Compound 87]	2.6 nM	
700 nM	370 nM	C[C@H](CS)C(=O)N1C(c2cccs2)SC[C@H]1C(=O)O (stereo partly shown) [Compound 91]	10 nM	
140 nM	840 nM	C[C@H](CS)C(=O)N1C(c2cccnc2)SC[C@H]1C(=O)O (stereo partly shown) [Compound 93]	2.9 nM	
83 nM	110 nM	C[C@H](CS)C(=O)N1C(c2ccncc2)SC[C@H]1C(=O)O (stereo partly shown) [Compound 95]	3.1 nM	
170 nM	260 nM	C[C@H](CS)C(=O)N1CSC[C@H]1C(=O)O [Compound 96, reference compound]	2.6 nM	
